Source: US20250214977A1, “STAT6 INHIBITORS AND USES THEREOF” (Kymera Therapeutics, Inc., priority 2024, published 2025)

Each compound was assayed on Phosphorylation of STAT6 in human PBMC (CD19+ B cells) (assay: Phosphorylated STAT6 (pSTAT6) flow cytometry assay in human PBMC, IL-4 stimulated). Conditions: compound 1 hour, 1 ng/ml IL-4 for 15 minutes, read-out: STAT6 IL4 pSTAT6 assay in PBMC: Average IC50.
Format: cell-based
Procedure, shortened: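 Human PBMC preincubated 1 h at 37 °C with compound (9-point 1:3 series, top up to 30 μM), then stimulated with 1 ng/ml IL-4 for 15 min. After fixation, methanol permeabilization and staining, pSTAT6 quantified in CD19+ B cells by flow cytometry; four-parameter fit of inhibition.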
`CN(C)C(=O)c1cc2cc(C3=CCCN(C(=O)CCn4ccnn4)C3)ncc2[nH]1` [Example I-224] showed an IC50 of 10 to 100 µM.
For `CN(C)C(=O)c1cc2cc([C@H]3CN(C(=O)CCn4ccnn4)CC[C@@H]3O)ccc2o1` (single isomer, unassigned) [Example I-210], the IC50 was > 100 µM.
In the case of `CN(C)C(=O)c1cc2cc(C3=CCCN(C(=O)C4Cc5c(cccc5-c5ccc(O)cc5)CN4C=O)C3)ccc2o1` (stereo not drawn) [Example I-187], the IC50 is reported as > 100 µM.
In the case of `CN(C)C(=O)c1cc2ccc(C3=CCCN(C(=O)c4cc(C#N)ccc4Br)C3)cc2[nH]1` [Example I-144], the IC50 is reported as > 100 µM.
`CN(C)C(=O)c1cc2ccc(C3=CCCN(C(=O)C(CC4CC4)N4Cc5ccccc5C4=O)C3)cc2[nH]1` (stereo not drawn) [Example I-104] was tested, and the IC50 was > 100 µM.
For `CN(C)C(=O)c1cc2ccc(C3=CCCN(C(=O)c4cccnc4-c4ccc(F)c(F)c4)C3)cc2[nH]1` [Example I-137], the IC50 was > 100 µM.
For `COC(=O)c1ccc(OCC(=O)N2CCC=C(c3ccc4cc(C(=O)N(C)C)[nH]c4c3)C2)cc1` [Example I-142], the IC50 was > 100 µM.
For `CN(C)C(=O)c1cc2cc(C3=CCCN(C(=O)Cc4ccc5ccccc5c4)C3)ccc2o1` [Example I-295], the IC50 was > 100 µM.
For `CN(C)C(=O)c1cc2cc(C3=CCCN(C(=O)CCn4ccnn4)C3)cc(CN3CCCCC3)c2o1` [Example I-185], the IC50 was 10 to 100 µM.
For `Cc1ccc(C(=O)N2CCC=C(c3ccc4cc(C(=O)N(C)C)[nH]c4c3)C2)c(=O)n1-c1ccc(F)cc1` [Example I-111], the IC50 was > 100 µM.
For `CN(C)C(=O)c1cc2cc(C3=CCCN(C(=O)Cc4cncnc4)C3)ccc2o1` [Example I-293], the IC50 was > 100 µM.
With `CN(C)C(=O)c1cc2cc(C3=CCCN(C(=O)CCc4cnccn4)C3)ccc2o1` [Example I-216] the IC50 was > 100 µM.
`CN(C)C(=O)c1nc2ccc(C3=CCCN(C(=O)CCn4ccnn4)C3)cc2o1` [Example I-226] was tested, and the IC50 was > 100 µM.
In the case of `CNCc1cccc2c1CC(C(=O)N1CCC=C(c3ccc4oc(C(=O)N(C)C)cc4c3)C1)N(C=O)C2` (stereo not drawn) [Example I-148], the IC50 is reported as > 100 µM.
`CN(C)C(=O)c1cc2cc(C3=CCCN(C(=O)Cc4ccccn4)C3)ccc2o1` [Example I-263] was tested, and the IC50 was > 100 µM.
With `CCNC(Cn1ccnn1)C(=O)N1CCC=C(c2ccc3oc(C(=O)N(C)C)cc3c2)C1` (stereo not drawn) [Example I-153] the IC50 was > 100 µM.
`CN(C)C(=O)c1cc2ccc(C3=CCCN(C(=O)CCc4nnc[nH]4)C3)cc2[nH]1` [Example I-21] was tested, and the IC50 was > 100 µM.
`CC(=O)N1Cc2ccccc2CC1C(=O)N1CCC=C(c2ccc3oc(C(=O)N(C)C)cc3c2)C1` (stereo not drawn) [Example I-182] was tested, and the IC50 was > 100 µM.
In the case of `CNCc1cc(C2=CCCN(C(=O)CCn3ccnn3)C2)cc2cc(C(=O)N(C)C)oc12` [Example I-203], the IC50 is reported as 10 to 100 µM.
For `CC1CCCN(C(=O)c2cc3ccc(C4=CCCN(C(=O)CCn5ccnn5)C4)cc3[nH]2)C1` (stereo not drawn) [Example I-126], the IC50 was > 100 µM.
In the case of `CN(C)C(=O)c1cc2cc(C3=CCCN(C(=O)Cc4cccnc4)C3)ccc2o1` [Example I-275], the IC50 is reported as > 100 µM.
